Experimental data published in patent US20220175761A1, “BI-LIGAND DRUG CONJUGATE AND USE THEREOF” (COHERENT BIOPHARMA (SUZHOU), LIMITED, priority 2019, published 2022).
Numbered stars: 1 amine (or outer) side, 2 acyl side, 3 side chain; on linkers, the order of the positions; unused ones are H or OH. Bridge positions count the residues as written; N and C are the ends. Square brackets hold non-standard residues; d marks the D form. Peptide text beside a SMILES is read from it. I, II: the chains in the order shown. * marks the point of attachment. ξ: configuration not given here. Hexanoyl(6-succinimido-3yl) = O=C1CC([*:1])C(=O)N1CCCCCC(=O)[*:2]; EuK = O=C(O)CC[C@H](NC(=O)N[C@@H](CCCCN*)C(=O)O)C(=O)O; Dolaproine = CO[C@@H]([C@@H]1CCCN1)[C@@H](C)C(=O)O; Dil = CC[C@H](C)[C@H](NC)[C@@H](CC(=O)O)OC; PABC = O=C(OCc1ccc(N[*:1])cc1)[*:2]; X1 = C[C@@H](N*)[C@@H](O)c1ccccc1; X2 = O=C(Cc1ccc(CN[*:1])cc1)[*:2]; PEG4 = NCCOCCOCCOCCOCCC(=O)O; NMeV = CN[C@H](C(=O)O)C(C)C; ξCit = NC(=O)NCCCC(N)C(=O)O; CO = O=C([*:1])[*:2]; Butyryl = CCCC(=O)*; Ahx = NCCCCCC(=O)O

Experiments:
[1] = test system: LNCaP (human prostate cancer cells); assay: Inhibition of cell line proliferation, CCK8; assay type: cell-based; conditions: LNCaP
Description: Since different cells have different sensitivity to a cell proliferation inhibitory toxicity of the payload in a ligand conjugate, the quantitative analysis may be interfered occasionally. A series of cell lines with known expression levels of receptors of different ligands were selected and tested for the response to inhibitory effects of the cell proliferation of a ligand conjugate and a single payload. The IC50 ratio of a single payload to that of a ligand conjugate in same cell line were taken to remove such interference.
Experimental operations: LNCaP and 22RV1 cells were prepared in advance, counted, and plated in 96-well cell culture plates at a cell density of 4×10^4 cells/ml and 2.0×10^4 cells/ml, respectively (100 μl/well); negative control and blank control wells were set on each plate. After adherent cell culture overnight, the diluted samples to be tested were added at 50 μl/well. The plates were placed in an incubator at 37° C., 5% CO2 and cultured for 68-72 hours. To each well, 15 μl (10% of the liquid volume in a well) of a color developing solution from CCK8 was added; and the plates were incubated at 37° C. for 45-70 minutes and each plate was read at 450 nm on a microplate reader. The data was edited using SoftMax Pro and a 4-P fitting curve was plotted. […]

[2] = test system: CFPAC-1 (human pancreatic cancer cells); assay: Inhibition of cell line proliferation, CCK8; assay type: cell-based
Protocol: (§1) Experimental operations: PANC-1 and CFPAC-1 cells were prepared in advance, counted, and plated in 96-well cell culture plates at a cell density of 4×10^4 cells/ml (100 μl/well); negative control and blank control wells were set on each plate. After adherent cell culture overnight, the diluted samples to be tested were added at 50 μl/well. The plates were placed in an incubator at 37° C., 5% CO2 and cultured for 68-72 hours. To each well, 15 μl (10% of the liquid volume in a well) of a color developing solution from CCK8 was added; and the plates were incubated at 37° C. for 45-70 minutes and each plate was read at 450 nm on a microplate reader. The data was edited using SoftMax Pro and a 4-P fitting curve was plotted.
(§2) Experimental operations: LNCaP, SK-BR-3, NCI-H226, CFPAC-1 and PANC-1 cells were prepared in advance and counted; with a culture medium (IMDM+10% FBS+1× L-Glutamine+1×P/S), the cells LNCaP, SK-BR-3 and CFPAC-1 were diluted to 4×10^4 cells/ml, NCI-H226 was diluted to 2.0×10^4 cells/ml and PANC-1 was diluted to 3.0×10^4 cells/ml; the diluted cell solution was plated in 96-well plates at 100 μl/well; and negative control and blank control wells were set on each plate. After adherent cell culture overnight, the diluted samples to be tested were added at 50 μl/well. The plates were placed in an incubator at 37° C., 5% CO2 and cultured for 68-72 hours. To each well, 15 μl (10% of the liquid volume in a well) of a color developing solution from CCK8 was added; and the plates were incubated at 37° C. for 45-70 minutes and each plate was read at 450 nm on a microplate reader. The data was edited using SoftMax Pro and a 4-P fitting curve was plotted.
(§3) Experimental Operations: LNCaP, SK-BR-3, MDA-MB-468 and CFPAC-1 cells were prepared in advance and counted; with a culture medium (IMDM+10% FBS+1× L-Glutamine+1×P/S), the cells LNCaP, SK-BR-3, MDA-MB-468 and CFPAC-1 were diluted to 4×10^4 cells/ml; the diluted cell solution was plated in 96-well plates at 100 µl/well; and negative control and blank control wells were set on each plate. After adherent cell culture overnight, the diluted samples to be tested were added at 50 μl/well. The plates were placed in an incubator at 37° C., 5% CO2 and cultured for 68-72 hours. To each well, 15 μl (10% of the liquid volume in a well) of a color developing solution from CCK8 was added; and the plates were incubated at 37° C. for 45-70 minutes and each plate was read at 450 nm on a microplate reader. The data was edited using SoftMax Pro and a 4-P fitting curve was plotted.
as §3, with “Operations: LNCaP, MDA-MB-468, CFPAC-1 and PANC-1” for “Operations: LNCaP, SK-BR-3, MDA-MB-468 and CFPAC-1”, “CFPAC-1 and PANC-1 cells were” for “MDA-MB-468 and CFPAC-1 cells were”, “cells LNCaP, MDA-MB-468 and” for “cells LNCaP, SK-BR-3, MDA-MB-468 and”, “to 4×10^4 cells/ml, and PANC-1 was diluted to 3.0×10^4 cells/ml; the” for “to 4×10^4 cells/ml; the”, “at 100 μl/well; and negative” for “at 100 µl/well; and negative”
Experimental operations: NCI-H226, CFPAC-1 and MDA-MB-468 cells were prepared in advance and counted; MDA-MB-468 and CFPAC-1 cells were plated at a density of 2×10^4 cells/ml (100 μl/well) and NCI-H226 cells were plated at a density of 1×10^4 cells/ml (100 μl/well) in 96-well plates; and negative control and blank control wells were set on each plate. After adherent cell culture overnight, the diluted samples to be tested were added at 50 μl/well. The plates were placed in an incubator at 37° C., 5% CO2 and cultured for 68-72 hours. […]

[3] = test system: PANC-1 (human pancreatic cancer cells); assay: Inhibition of cell line proliferation, CCK8; assay type: cell-based
Protocol: as §1, §2
as §3, with “Operations: LNCaP, MDA-MB-468, CFPAC-1 and PANC-1” for “Operations: LNCaP, SK-BR-3, MDA-MB-468 and CFPAC-1”, “CFPAC-1 and PANC-1 cells were” for “MDA-MB-468 and CFPAC-1 cells were”, “cells LNCaP, MDA-MB-468 and” for “cells LNCaP, SK-BR-3, MDA-MB-468 and”, “to 4×10^4 cells/ml, and PANC-1 was diluted to 3.0×10^4 cells/ml; the” for “to 4×10^4 cells/ml; the”, “at 100 μl/well; and negative” for “at 100 µl/well; and negative”

[4] = test system: MDA-MB-468 (human breast cancer cells); assay: Inhibition of cell line proliferation, CCK8; assay type: cell-based
Protocol: as §3
as §3, with “Operations: LNCaP, MDA-MB-468, CFPAC-1 and PANC-1” for “Operations: LNCaP, SK-BR-3, MDA-MB-468 and CFPAC-1”, “CFPAC-1 and PANC-1 cells were” for “MDA-MB-468 and CFPAC-1 cells were”, “cells LNCaP, MDA-MB-468 and” for “cells LNCaP, SK-BR-3, MDA-MB-468 and”, “to 4×10^4 cells/ml, and PANC-1 was diluted to 3.0×10^4 cells/ml; the” for “to 4×10^4 cells/ml; the”, “at 100 μl/well; and negative” for “at 100 µl/well; and negative”
Experimental operations: NCI-H226, CFPAC-1 and MDA-MB-468 cells were prepared in advance and counted; MDA-MB-468 and CFPAC-1 cells were plated at a density of 2×10^4 cells/ml (100 μl/well) and NCI-H226 cells were plated at a density of 1×10^4 cells/ml (100 μl/well) in 96-well plates; and negative control and blank control wells were set on each plate. After adherent cell culture overnight, the diluted samples to be tested were added at 50 μl/well. The plates were placed in an incubator at 37° C., 5% CO2 and cultured for 68-72 hours. To each well, 15 μl (10% of the liquid volume in a well) of a color developing solution from CCK8 was added; and the plates were incubated at 37° C. for 45-70 minutes and each plate was read at 450 nm on a microplate reader. The data was edited using SoftMax Pro and a 4-P fitting curve was plotted.

[5] = test system: SCLC-21H (small cell lung cancer cells); assay: Tumor growth inhibition in subcutaneous xenograft model (CDX); assay type: in vivo, BALB/c-nude mice; conditions: SCLC-21H CDX
Protocol: Main CDX models: HPAF-II (human pancreatic cancer cells), NCI-H226 (human lung cancer cells) and SCLC-21H (small cell lung cancer cells)
The cells or tumor tissue mass were prepared and subcutaneously inoculated into the anterior right flank of BALB/c-nude mice. When the tumor volume expanded to 80-160 mm^3, a randomized grouping was performed, and a model control group and administration groups were set. The mice were administrated from the first day of grouping, wherein the administration dose was adjusted according to the latest weight measurement. The mice were administrated via tail vein injection at an administration volume of 10 μl/g. After grouping and administration, the effects of tumor growth and treatment on normal behaviors of animals, specifically including the activity of experimental animals, food intake and drinking status, weight gain or loss status, and other abnormal conditions in eyes, hair, etc., were monitored. After grouping and administration, the weight of mice was measured twice a week to calculate the rate of weight change; at the same time, the long diameter and short diameter of the tumor were measured with a vernier caliper, and the tumor volume, relative tumor proliferation rate, tumor volume inhibition rate and other indicators were calculated. The formula of tumor volume is TV=0.5 a×b^2, wherein a is […] the long diameter of a tumor and b is the short diameter of a tumor.

CCCC(=O)N[C@@H](Cc1ccccc1)C(=O)N[C@H]1CSSC[C@@H](C(=O)N[C@H](C(=O)N[C@@H](CCCCNC(=O)[C@H](CCC(=O)O)NC(=O)CCOCCOCCOCCOCCNC(=O)[C@H](CCC(=O)O)NC(=O)[C@H](CSC2CC(=O)N(CCCCCC(=O)N[C@H](C(=O)NC(CCCNC(N)=O)C(=O)Nc3ccc(COC(=O)N(C)[C@H](C(=O)N[C@H](C(=O)N(C)[C@@H]([C@@H](C)CC)[C@@H](CC(=O)N4CCC[C@H]4[C@H](OC)[C@@H](C)C(=O)N[C@H](C)[C@@H](O)c4ccccc4)OC)C(C)C)C(C)C)cc3)C(C)C)C2=O)NC(=O)CCCCCNC(=O)[C@H](CCCCN)NC(=O)[C@H](CC(=O)O)NC(=O)[C@H](CC(=O)O)NC(=O)Cc2ccc(CNC(=O)NCCCC[C@H](NC(=O)N[C@@H](CCC(=O)O)C(=O)O)C(=O)O)cc2)C(N)=O)[C@@H](C)O)NC(=O)[C@H]([C@@H](C)O)NC(=O)[C@H](CCCCN)NC(=O)[C@H](Cc2c[nH]c3ccccc23)NC(=O)[C@H](Cc2ccc(O)cc2)NC1=O (stereo partly drawn) [CB-1820] (I: Butyryl-FCYWKTCTK-NH2 / II: {EuK-CO}-[X2]DDK[Ahx]CE[PEG4]E / III: V[ξCit][PABC][NMeV]V[Dil][Dolaproine]-X1; disulfide I:2-I:7; amide I:9-II:C; linker II:6-III:N via Hexanoyl(6-succinimido-3yl))
IC50 ratio (MMAE/conjugate) [1]: 0.1429 | IC50 ([1]; 68-72 hours, CCK8): 21 nM | IC50 (MMAE)/IC50 (conjugate) ([2]; CFPAC-1): 0.0421 | IC50 ([2]; CFPAC-1, 68-72 hours, CCK8): 356 nM | IC50 (MMAE)/IC50 (conjugate) ([3]; PANC-1): 0.0364 | IC50 ([3]; PANC-1, 68-72 hours, CCK8): 55 nM | IC50 (MMAE)/IC50 (conjugate) ([4]; MDA-MB-468): 0.0323 | IC50 ([4]; MDA-MB-468, 68-72 hours, CCK8): 62 nM | anti-tumor growth effect (in words) [5]: obvious anti-tumor growth effect
